Earlier results as cited in patent US20080058642A1, “METHOD FOR DETECTING CORONARY ENDOTHELIAL DYSFUNCTION AND EARLY ATHEROSCLEROSIS” (BOARD OF REGENTS OF THE UNIVERSITY OF TEXAS SYSTEM, priority 2006, published 2008).

Molecular target: T1, ETA-receptor (Homo sapiens, UniProt P25101)
T1 construct: host or cells: in vivo, heart failure trial
T1 sequence (P25101 21-427): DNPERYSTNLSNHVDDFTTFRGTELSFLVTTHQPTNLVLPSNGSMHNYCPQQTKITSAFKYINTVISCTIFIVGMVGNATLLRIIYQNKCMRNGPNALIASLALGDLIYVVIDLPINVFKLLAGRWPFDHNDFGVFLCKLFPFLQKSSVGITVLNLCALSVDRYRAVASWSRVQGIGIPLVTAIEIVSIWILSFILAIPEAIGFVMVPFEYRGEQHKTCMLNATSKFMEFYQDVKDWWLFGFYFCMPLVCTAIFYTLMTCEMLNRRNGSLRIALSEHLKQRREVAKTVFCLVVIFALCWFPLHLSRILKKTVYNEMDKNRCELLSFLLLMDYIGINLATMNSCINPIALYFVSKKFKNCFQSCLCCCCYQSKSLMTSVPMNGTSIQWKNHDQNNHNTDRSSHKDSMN
Details: recent randomized trial; cited from earlier work

## COc1cc(OC)nc(O[C@H](C(=O)O)C(OC)(c2ccccc2)c2ccccc2)n1 [Darusentan™]
  benefit in heart failure: no benefit
